Test results from patent US8334302B2, “Synthesis and anti-proliferative effect of substituted imidazo[4,5-b]pyridine compounds” (Spelman College, priority 2008, dated 2012).

Tests used:
[1] = tested on: PC-3 human prostate cancer cells; experiment: Inhibition of cell proliferation in PC-3 cells, DNA assay (Hoechst 33258); type: cell-based; details: for IC50: Homo sapiens, inhibition of PC-3 cells, read-out: PC3 IC50
Protocol: Cell Culture and Drug Treatment. PC-3 human prostate cancer cells were seeded in duplicate 96 well tissue culture plates at 500 cells/well in 80-μL Dulbecco's […] (DMEM) supplemented with 5% fetal bovine serum (FBS) and nonessential amino acids and 1% equimolar mixture of streptomycin-penicllin. The flasks were incubated in a humidified 95% air/5% CO2 atmosphere. The cells were grown for at least 24 hours to ensure that they were in the early log phase of growth. Cells were then treated with 20-μL drug solutions (stock 10 mM drug solution in DMSO was diluted in DMEM containing 5% FBS such that final DMSO concentration is less than 1%) of appropriate final concentration by serial dilution. Untreated control cells received 20-μL DMEM containing 5% FBS. Six wells of each plate received the same drug concentration. Thus, each data point and error bars are an average and standard deviation of readings from 12 wells treated with identical drug concentration.
DNA Assay. After appropriate time of incubation, DNA assay was performed. For DNA assay, each culture plate was washed with 25% PBS and incubated in deionized double distilled water for at least one hour at room temperature. Plates were frozen at −70° C. and thawed/equilibrated to room temperature. Hoechst 33258 DNA binding dye was then added to each well in 200-μL of high salt TNE buffer (10 mM Tris, 1 mM EDTA, 2 M NaCl [pH 7.4]) at a final concentration of 6.7-μg/mL. After further incubation at room temperature for 2 hours under protection from light, culture plates were scanned on the CytoFluor 2350™ scanner using the 360/460 nm filter excitation and emission set. Readings from all plates were normalized to the fluorescence of control untreated cells and all data were expressed as the percent control.

CDK1/cyclinB(h) = molecular target: T1, CDK1/cyclinB(h) (Homo sapiens, UniProt P06493); experiment: Kinase assay, Millipore KinaseProfiler, radiometric; type: biochemical; details: CDK1/cyclinB(h) activity in presence of compound
T1 construct: purchased Millipore (KinaseProfiler Service)
Protocol: (§1) Kinase Assays. Kinase assays were conducted by Millipore's KinaseProfiler Service to determine the amount of ATP phosphorylation that occurs in the presence of a benzimidazole molecule. Kinases assayed included IKKβ, CK2, CDK1/cyclinB, GSK3β, and p70S6K. The desired kinase was treated with the benzimidazole compound The reaction were initiated by the addition of the MgATP mix. After incubation for 40 minutes at room temperature, the reaction is stopped by the addition of 3% phosphoric acid solution. 10 μL of the reaction was then spotted onto a P30 filtermat and washed three times for 5 minutes in 75 mM phosphoric acid and once in methanol prior to drying and scintillation counting. The kinase activity was measured radiometrically to determine the amount of ATP phosphorylation produced. All assays were done in triplicate.

CK2(h) = molecular target: T2, CK2(h) (Homo sapiens, UniProt P68400); experiment: as above; type: biochemical; details: CK2(h) activity in presence of compound
T2 construct: purchased Millipore (KinaseProfiler Service)
Protocol: as §1

GSK3β(h) = molecular target: T3, GSK3β(h) (Homo sapiens, UniProt P49841); experiment: as above; type: biochemical; details: GSK3β(h) activity in presence of compound
T3 construct: purchased Millipore (KinaseProfiler Service)
Protocol: as §1

IKKβ(h) = molecular target: T4, IKKβ(h) (Homo sapiens, UniProt O14920); experiment: as above; type: biochemical; details: IKKβ(h) activity in presence of compound
T4 construct: purchased Millipore (KinaseProfiler Service)
T4 sequence (O14920 1-756): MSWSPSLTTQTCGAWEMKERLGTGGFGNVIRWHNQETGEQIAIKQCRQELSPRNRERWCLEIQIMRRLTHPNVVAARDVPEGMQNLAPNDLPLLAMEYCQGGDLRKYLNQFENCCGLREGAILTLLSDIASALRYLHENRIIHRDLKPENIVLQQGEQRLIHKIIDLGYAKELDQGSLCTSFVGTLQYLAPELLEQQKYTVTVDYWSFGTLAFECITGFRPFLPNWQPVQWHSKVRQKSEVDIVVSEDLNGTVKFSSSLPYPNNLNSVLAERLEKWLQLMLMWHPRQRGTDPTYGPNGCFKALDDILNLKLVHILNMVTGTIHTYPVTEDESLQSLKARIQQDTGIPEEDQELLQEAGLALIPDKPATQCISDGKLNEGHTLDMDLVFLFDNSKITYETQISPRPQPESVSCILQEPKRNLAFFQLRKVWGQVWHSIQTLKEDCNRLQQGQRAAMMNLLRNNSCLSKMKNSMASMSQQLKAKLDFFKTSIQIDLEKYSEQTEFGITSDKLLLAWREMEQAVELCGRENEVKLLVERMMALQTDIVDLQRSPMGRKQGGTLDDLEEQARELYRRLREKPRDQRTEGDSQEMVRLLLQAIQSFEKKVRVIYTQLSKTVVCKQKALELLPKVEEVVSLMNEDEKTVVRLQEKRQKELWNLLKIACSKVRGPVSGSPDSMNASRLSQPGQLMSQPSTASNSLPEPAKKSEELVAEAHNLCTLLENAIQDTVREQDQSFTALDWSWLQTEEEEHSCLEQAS
Protocol: as §1

p70S6K(h) = molecular target: T5, p70S6K(h) (Homo sapiens, UniProt P23443); experiment: as above; type: biochemical; details: p70S6K(h) activity in presence of compound
T5 construct: purchased Millipore (KinaseProfiler Service)
Protocol: as §1

PDK1(h) = molecular target: T6, PDK1(h) (Homo sapiens, UniProt O15530); experiment: as above; type: biochemical; details: PDK1(h) activity in presence of compound
T6 construct: purchased Millipore (KinaseProfiler Service)
T6 sequence (O15530 1-556): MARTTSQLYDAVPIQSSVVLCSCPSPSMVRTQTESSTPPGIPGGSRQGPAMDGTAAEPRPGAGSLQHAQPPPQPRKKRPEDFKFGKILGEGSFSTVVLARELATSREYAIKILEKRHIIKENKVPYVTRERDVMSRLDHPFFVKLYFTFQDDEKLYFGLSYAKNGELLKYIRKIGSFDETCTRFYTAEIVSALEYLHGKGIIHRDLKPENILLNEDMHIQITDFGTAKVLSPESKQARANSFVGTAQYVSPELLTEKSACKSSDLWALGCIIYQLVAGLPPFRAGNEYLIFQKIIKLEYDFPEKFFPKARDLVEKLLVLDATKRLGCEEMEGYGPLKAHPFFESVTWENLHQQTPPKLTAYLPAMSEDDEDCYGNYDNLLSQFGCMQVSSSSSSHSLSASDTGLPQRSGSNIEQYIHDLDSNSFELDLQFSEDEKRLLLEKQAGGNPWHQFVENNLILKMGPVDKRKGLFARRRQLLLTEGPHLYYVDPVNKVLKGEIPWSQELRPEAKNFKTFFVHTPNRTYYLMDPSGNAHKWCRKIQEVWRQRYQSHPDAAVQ

PC-3 cells = details: micromolar concentrations; cited from earlier work

T1 sequence (P06493 whole entry): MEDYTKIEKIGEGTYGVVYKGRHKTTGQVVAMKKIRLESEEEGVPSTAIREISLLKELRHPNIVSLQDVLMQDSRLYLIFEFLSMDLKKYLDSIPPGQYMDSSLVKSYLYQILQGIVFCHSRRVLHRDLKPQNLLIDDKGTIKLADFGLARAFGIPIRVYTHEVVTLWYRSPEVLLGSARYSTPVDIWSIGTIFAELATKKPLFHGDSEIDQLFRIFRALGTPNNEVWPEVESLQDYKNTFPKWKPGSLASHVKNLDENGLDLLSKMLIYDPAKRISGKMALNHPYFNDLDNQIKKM
T1 sequence (P14635 whole entry partner): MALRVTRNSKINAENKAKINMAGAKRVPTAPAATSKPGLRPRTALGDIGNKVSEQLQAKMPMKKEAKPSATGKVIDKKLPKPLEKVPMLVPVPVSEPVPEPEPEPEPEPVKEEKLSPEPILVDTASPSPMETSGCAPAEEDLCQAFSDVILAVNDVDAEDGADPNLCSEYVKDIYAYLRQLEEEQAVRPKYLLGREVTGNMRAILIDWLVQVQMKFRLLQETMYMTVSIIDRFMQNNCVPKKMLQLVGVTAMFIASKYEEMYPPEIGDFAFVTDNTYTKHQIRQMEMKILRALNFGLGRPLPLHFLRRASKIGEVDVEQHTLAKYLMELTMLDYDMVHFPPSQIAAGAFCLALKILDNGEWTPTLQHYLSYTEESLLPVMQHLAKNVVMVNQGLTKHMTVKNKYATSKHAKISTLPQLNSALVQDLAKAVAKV
T5 sequence (P23443 whole entry): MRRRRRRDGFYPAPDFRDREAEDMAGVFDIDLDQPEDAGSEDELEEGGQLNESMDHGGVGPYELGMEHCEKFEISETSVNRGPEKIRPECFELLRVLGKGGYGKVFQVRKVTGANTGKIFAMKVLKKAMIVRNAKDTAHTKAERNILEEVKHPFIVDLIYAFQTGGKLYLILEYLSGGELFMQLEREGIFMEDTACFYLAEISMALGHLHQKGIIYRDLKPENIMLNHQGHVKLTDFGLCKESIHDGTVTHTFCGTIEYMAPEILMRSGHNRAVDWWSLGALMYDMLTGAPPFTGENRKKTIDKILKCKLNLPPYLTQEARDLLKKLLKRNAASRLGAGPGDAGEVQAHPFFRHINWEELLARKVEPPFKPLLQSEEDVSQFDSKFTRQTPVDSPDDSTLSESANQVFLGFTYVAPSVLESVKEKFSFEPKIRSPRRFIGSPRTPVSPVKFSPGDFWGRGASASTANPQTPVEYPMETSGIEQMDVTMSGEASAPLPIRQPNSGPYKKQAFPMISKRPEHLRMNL
T3 sequence (P49841 whole entry): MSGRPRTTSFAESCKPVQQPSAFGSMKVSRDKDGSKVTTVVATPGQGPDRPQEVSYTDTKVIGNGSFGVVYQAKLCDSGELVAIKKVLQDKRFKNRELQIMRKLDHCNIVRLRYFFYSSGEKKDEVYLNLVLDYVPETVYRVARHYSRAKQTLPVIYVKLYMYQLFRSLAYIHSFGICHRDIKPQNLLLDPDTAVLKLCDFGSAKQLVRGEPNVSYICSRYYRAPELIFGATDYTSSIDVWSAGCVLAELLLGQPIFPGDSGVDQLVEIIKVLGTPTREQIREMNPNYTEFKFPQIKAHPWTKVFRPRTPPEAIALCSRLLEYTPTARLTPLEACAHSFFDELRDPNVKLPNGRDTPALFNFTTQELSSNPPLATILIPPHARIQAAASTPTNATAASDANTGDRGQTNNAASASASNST
T2 sequence (P68400 whole entry): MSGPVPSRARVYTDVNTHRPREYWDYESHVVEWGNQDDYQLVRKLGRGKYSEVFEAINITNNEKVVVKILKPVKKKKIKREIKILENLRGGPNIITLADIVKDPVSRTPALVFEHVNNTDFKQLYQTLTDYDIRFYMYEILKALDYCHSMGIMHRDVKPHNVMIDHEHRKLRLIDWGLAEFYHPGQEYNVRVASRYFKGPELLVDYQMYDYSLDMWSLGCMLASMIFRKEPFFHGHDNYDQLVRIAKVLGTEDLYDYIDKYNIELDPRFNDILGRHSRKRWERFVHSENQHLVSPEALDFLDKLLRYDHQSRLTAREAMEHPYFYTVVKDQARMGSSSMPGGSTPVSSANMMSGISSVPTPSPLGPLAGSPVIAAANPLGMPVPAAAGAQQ
T2 sequence (P67870 whole entry partner): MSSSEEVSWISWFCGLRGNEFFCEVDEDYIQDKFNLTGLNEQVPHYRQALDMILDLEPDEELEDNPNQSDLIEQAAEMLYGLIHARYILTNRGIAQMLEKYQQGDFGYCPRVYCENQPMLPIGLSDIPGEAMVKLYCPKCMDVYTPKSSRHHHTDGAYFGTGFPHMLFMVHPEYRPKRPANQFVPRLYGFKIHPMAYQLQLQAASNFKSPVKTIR

Structure (SMILES)	IC50 [1] [µM]	% Activity (CDK1/cyclinB(h)) [%]	% Activity (CK2(h)) [%]	% Activity (GSK3β(h)) [%]	% Activity (IKKβ(h)) [%]	% Activity (p70S6K(h)) [%]	further results
NS(=O)(=O)c1ccc(-n2nc(C(F)(F)F)cc2-c2ccc3ccccc3c2)cc1 [Compound 205]	10	–	–	–	–	–	–
CC(C)(C)c1ccc(-n2c(-c3ccc(S(N)(=O)=O)cc3)nc3ccccc32)cc1 [Compound 207, 4-(1-(4-tert-butylphenyl)-1H-benzo[d]imidazol-2-yl)benzenesulfonamide]	20	–	–	–	–	–	–
CC(C)(C)c1ccc(-c2cc(C(F)(F)F)nn2-c2ccc(S(N)(=O)=O)cc2)cc1 [Compound 204]	18	–	–	–	–	–	–
N=C(N)Nc1ccc(-n2nc(C(F)(F)F)cc2-c2ccc3c(ccc4ccccc43)c2)cc1 [Compound 202, OSU-03013]	3	–	–	–	–	–	concentration diminishing cell proliferation, relative to celecoxib (PC-3 cells): thirty-fold lower
Cc1ccc(-c2cc(C(F)(F)F)nn2-c2ccc(S(N)(=O)=O)cc2)cc1 [Compound 201, Celecoxib]	30	–	–	–	–	–	–
FC(F)(F)c1cc(-c2ccc3c(ccc4ccccc43)c2)n(-c2ccc(-c3nnn[nH]3)cc2)n1 [Compound 203]	32	–	–	–	–	–	–

Now from value to molecule, other results behind:

IC50 [1] [µM]	% Activity (CDK1/cyclinB(h)) [%]	% Activity (CK2(h)) [%]	% Activity (GSK3β(h)) [%]	% Activity (IKKβ(h)) [%]	% Activity (p70S6K(h)) [%]	Structure (SMILES)	further results
10	–	–	–	–	–	NS(=O)(=O)c1ccc(-c2nc3ccccc3n2-c2ccc3ccccc3c2)cc1 [Compound 208]	–
–	11	99	13	71	17	NS(=O)(=O)c1ccc(-c2nc3ccccc3n2-c2ccc(-c3ccccc3)cc2)cc1 [Compound 211]	–
24	7	92	72	86	33	Cc1ccc(-n2c(-c3ccc(S(N)(=O)=O)cc3)nc3ccccc32)cc1 [Compound 206, 4-[1-(4-methylphenyl)-1H-benzo[d]imidazol-2-yl]benzenesulfonamide]	antiproliferative effect in PC-3 cells (in words) ([1]; PC-3 human prostate cancer cells, DNA assay, FIG. 1): slightly more effective
–	36	22	5	25	12	NS(=O)(=O)c1ccc(-c2nc3ccccc3n2-c2ccc(Cc3ccccc3)cc2)cc1 [Compound 209, 4-(1-(4-benzylphenyl)-1H-benzo[d]imidazol-2-yl)benzenesulfonamide]	% Activity (PDK1(h)): 30%
–	16	99	7	72	18	NS(=O)(=O)c1ccc(-c2nc3ccccc3n2-c2ccc(Oc3ccccc3)cc2)cc1 [Compound 210]	–
